Reference: patent US11292767B2, “Heterocyclic inhibitors of MCT4” (Vettore, LLC, priority 2016, dated 2022)

Tests used:
Type in all cases: in vitro ADME
[1] = Metabolic stability in human liver microsomes (in vitro t1/2); conditions: human liver microsomes 0.5 mg/mL, 2 μM compound, % remaining at 60 min
Experimental: (§1) Metabolic Stability Assays The following are assays that may be used to evaluate the metabolic stability of compounds of Formula (I) in human, rat, or mouse microsomes. The assays follow a common procedure recited below. 1. […] Two separated experiments were performed as follows. a) With NADPH: 10 μL of 20 mg/mL liver microsomes and 40 μL of 10 mM NADPH were added to the incubations. […] The final concentration of microsomes was 0.5 mg/mL. 3. The reaction was started with the addition of 4 μL of 200 μM control compound or test compound solutions. Verapamil was used as positive control in this study. The final concentration of test compound or control compound was 2 μM. 4. Aliquots of 50 μL were taken from the reaction solution at 0, 15, 30, 45 and 60 min. […] Samples were centrifuged at 3,220 g for 40 minutes. A 90 μL aliquot of the supernatant was mixed with 90 μL of ultra-pure H2O and then used for LC-MS/MS analysis. 5. Data analysis. All calculations were carried out using Microsoft Excel. Peak areas were determined from extracted ion chromatograms. The slope value, k, was determined by linear regression of the natural logarithm of the remaining percentage of the parent drug vs. incubation time curve. The in vitro half-life (in vitro t1/2) was determined from the slope value: in vitro t1/2=−(0.693)/k.

[2] = Metabolic stability in mouse liver microsomes (in vitro t1/2); conditions: mouse liver microsomes 0.5 mg/mL, 2 μM compound, % remaining at 60 min
Experimental: as §1

[3] = Metabolic stability in rat liver microsomes (in vitro t1/2); conditions: rat liver microsomes 0.5 mg/mL, 2 μM compound; for Rat microsome % 60 min: % remaining at 60 min
Experimental: as §1

Human microsome % 60 min [1]	Mouse microsome % 60 min [2]	Rat microsome % 60 min [3]	Compound	Rat microsome t1/2, min ([3]; in vitro t1/2)
97%	90%	91%	CC(C)Oc1ncc(-c2cc(COC(C)(C)C(=O)O)nn2Cc2ccccc2Cl)s1 [Example 133, 2-([1-[(2-Chlorophenyl)methyl]-5-[2-(propan-2-yloxy)-1,3-thiazol-5-yl]-1H-pyrazol-3-yl]methoxy)-2-methylpropanoic acid]	
82%	84%		COc1ccc(-c2cc(COC(C)(C)C(=O)O)nn2Cc2ccccc2Cl)s1 [Example 64, 2-([1-[(2-Chlorophenyl)methyl]-5-(5-methoxythien-2-yl)-1H-pyrazol-3-yl]methoxy)-2-methylpropanoic acid]	
80%	72%	85%	CC(C)Cc1ncc(-c2cc(COC(C)(C)C(=O)O)nn2Cc2ccccc2Cl)o1 [Example 134, 2-([1-[(2-Chlorophenyl)methyl]-5-[2-(2-methylpropyl)-1,3-oxazol-5-yl]-1H-pyrazol-3-yl]methoxy)-2-methylpropanoic acid]	
78%	92%		COc1csc(-c2cc(COC(C)(C)C(=O)O)nn2Cc2ccccc2Cl)c1 [Example 65, 2-([1-[(2-Chlorophenyl)methyl]-5-(4-methoxythien-2-yl)-1H-pyrazol-3-yl]methoxy)-2-methylpropanoic acid]	
95%	95%	88%	Cn1ncc2ccc(-c3cc(COC(C)(C)C(=O)O)nn3Cc3ccccc3Cl)cc21 [Example 226, 2-([1-[(2-Chlorophenyl)methyl]-5-(1-methyl-1H-indazol-6-yl)-1H-pyrazol-3-yl]methoxy)-2-methylpropanoic acid]	
43%	50%		CC(C)COc1cccc(-c2cc(COC(C)(C)C(=O)O)nn2Cc2ccccc2Cl)c1 [Example 27, 2-([1-[(2-Chlorophenyl)methyl]-5-(3-(2-methylpropoxy)phenyl)1H-pyrazol-3-yl]methoxy)-2-methylpropanoic acid]	
73%	83%		COc1cc(-c2cc(COC(C)(C)C(=O)O)nn2Cc2ccccc2Cl)cs1 [Example 66, 2-([1-[(2-chlorophenyl)methyl]-5-(5-methoxythien-3-yl)-1H-pyrazol-3-yl]methoxy)-2-methylpropanoic acid]	
67%	31%		CC(C)Oc1cccc(-c2cc(COC(C)(C)C(=O)O)nn2Cc2ccccc2Cl)c1 [Example 35, 2-([1-[(2-Chlorophenyl)methyl]-5-(3-isopropoxyphenyl)1H-pyrazol-3-yl]methoxy)-2-methylpropanoic acid]	

The remaining lines, values behind:

Compound	Human microsome % 60 min [1]	Mouse microsome % 60 min [2]	Rat microsome % 60 min [3]	Rat microsome t1/2, min ([3]; in vitro t1/2)
CCOc1ccccc1Cn1nc(COC(C)(C)C(=O)O)cc1-c1cccc(OC2CC2)c1 [Example 201, 2-([5-(3-Cyclopropoxyphenyl)-1-[(2-ethoxyphenyl)methyl]-1H-pyrazol-3-yl]-methoxy)-2-methylpropanoic acid]	58%	58%	39%	
CCOc1cccc(-n2nc(COC(C)(C)C(=O)O)cc2-c2cc(OC)cc(OC)c2)c1 [Example 243, 2-([5-(3,5-Dimethoxyphenyl)-1-(3-ethoxyphenyl)-1H-pyrazol-3-yl]-methoxy)-2-methylpropanoic acid]	88%	97%	88%	
Cn1ncc2cccc(-n3nc(COC(C)(C)C(=O)O)cc3-c3cccc(OC4CCC4)c3)c21 [Example 166, 2-([5-(3-Cyclobutoxyphenyl)-1-(1-methyl-1H-indazol-7-yl)-1H-pyrazol-3-yl]methoxy)-2-methylpropanoic acid]	94%	82%		∞
COc1cccc(-c2cc(COC(C)(C)C(=O)O)nn2Cc2ccccc2OC)c1 [Example 36, 2-([5-(3-Methoxyphenyl)-1-[(2-methoxyphenyl)methyl]1H-pyrazol-3-yl]methoxy)-2-methylpropanoic acid]	85%	99%		
CC(C)(OCc1cc(-c2cccc(OC3CC3)c2)n(-c2ccccc2N2CCCC2)n1)C(=O)O [Example 221, 2-([5-(3-Cyclopropoxyphenyl)-1-[2-(pyrrolidin-1-yl)phenyl]-1H-pyrazol-3-yl]methoxy)-2-methylpropanoic acid]	56%	34%	33%	
CCOc1ccccc1Cn1nc(COC(C)(C)C(=O)O)cc1-c1ccc2cnn(CC)c2c1 [Example 198, 2-([1-[(2-Ethoxyphenyl)methyl]-5-(1-ethyl-1H-indazol-6-yl)-1H-pyrazol-3-yl]methoxy)-2-methylpropanoic acid]	80%	84%	82%	
CCn1ncc2ccc(-c3cc(COC(C)(C)C(=O)O)nn3-c3ccccc3Cl)cc21 [Example 157, 2-([1-(2-chlorophenyl)-5-(1-ethyl-1H-indazol-6-yl)-1H-pyrazol-3-yl]methoxy)-2-methylpropanoic acid]	78%		97%	
CC(C)(OCc1cc(-c2cccc(OC3CC3)c2)n(-c2ccc(F)cc2N2CCC2)n1)C(=O)O [Example 183, 2-([1-[2-(Azetidin-1-yl)-4-fluorophenyl]-5-(3-cyclopropoxyphenyl)-1H-pyrazol-3-yl]methoxy)-2-methylpropanoic acid]	66%	73%	71%	
COc1cccc(-c2c(C)c(COC(C)(C)C(=O)O)nn2Cc2ccccc2Cl)c1 [Example 54, 2-({1-[(2-Chlorophenyl)methyl]-5-(3-methoxyphenyl)-4-methyl-1H-pyrazol-3-yl}methoxy)-2-methylpropionic acid]	59%	95%		
CC(C)(OCc1cc(-c2cccc(OC3CC3)c2)n(Cc2ccccc2Cl)n1)C(=O)O [Example 39, 2-([1-[(2-Chlorophenyl)methyl]-5-[3-(cyclopropoxy)phenyl]1H-pyrazol-3-yl]methoxy)-2-methylpropanoic acid]	89%	88%		
CC[C@](C)(OCc1cc(-c2cccc(OC)c2)n(Cc2ccccc2Cl)n1)C(=O)O [Example 120, (2S)-2-([1-[(2-chlorophenyl)methyl]-5-(3-methoxyphenyl)-1H-pyrazol-3-yl]methoxy)-2-methylbutanoic Acid]	81%		44%	
CCC(C)(OCc1cc(-c2cccc(OC)c2)n(Cc2ccccc2Cl)n1)C(=O)O (stereo not drawn) [Example 68, 2-([1-[(2-Chlorophenyl)methyl]-5-(3-methoxyphenyl)-1H-pyrazol-3-yl]methoxy)-2-methylbutanoic acid]	95%	91%		
COc1cccc(-c2cc(COC(C)(C)C(=O)O)nn2Cc2ccccc2N(C)C)c1 [Example 38, 2-([1-[[2-(Dimethylamino)phenyl]methyl]-5-(3-methoxyphenyl)1H-pyrazol-3-yl]methoxy)-2-methylpropanoic acid]	56%	61%		
